Entries after “also recorded” stand apart in the source; their conditions may differ.
Key:
STAT5 = STAT5 activation by EMSA in harvested xenografts; assay type: in vivo; details: xenografts after 25 treatments; specificity
[1] = system: head and neck squamous cell carcinoma; details: dose-dependent; Leong et al. 2003; cited from earlier work
Cyclin D1 = Cyclin D1 expression by immunoblotting in SCCHN cells in vitro; assay type: cell-based, human; details: 1483 cells; 25 μM, 6 days; p<0.0001
Description: (§1) Immunoblotting. Whole cell extracts were mixed with 2× sodium dodecyl sulfate (SDS) sample buffer (125 mmol/L Tris-HCL, pH 6.8; 4% SDS; 20% glycerol; 10% 2 mercaptoethanol) at 1:1 ratio and were heated for 5 min at 100° C. Proteins (50 μg/lane) were separated by 12.5% SDS-PAGE and transferred onto a nitrocellulose membrane (MSI; Westboro, Mass). Prestained molecular weight markers (GIBCO BRL; Gaithersburg, MD) were included in each gel. Membranes were blocked for 30 min in Tris-buffered saline (TBS: 10 mmol/L Tris-HCL, pH 7.5 and 150 mmol/L NaCl) with 0.5% Tween-20 (TBST) and 5% BSA. […] Quantification of Cyclin D1 and Bcl-xL was performed by using a Molecular Dynamics Personal Densitometer SI and IMAGEQUANT software (Image Products International, Chantilly, Va.). Immunoblotting bands were quantified by densitometry and the Molecular Analyst software (AlphaDigidoc 1000, Alpho-Innotech) with normalization of each band to their corresponding loading control (Xi, S., et al. J Biol Chem, 278: 31574-31583, 2003). […]
(§2) As shown above, treatment with the STAT3 decoy abrogates STAT3 target gene expression in vivo. […] The data were analyzed using parametric analysis of variance of a two-way factorial design. […]

[2] = system: SCCHN xenografts (1483 cells); assay: In vivo tumor xenograft study, tumor volumes; set-up: species or system athymic nude mice; details: 25 μg intratumoral daily, 1483 xenografts, nude mice; p=0.002
Description: Statistics. In vivo comparisons of STAT3, cyclin D1 and Bcl-xL expression levels were conducted with the Wilcoxon test for comparing two groups or the Kruskal-Wallis test for comparing three groups. All tests were exact and two-tailed. Studies of the joint effect of STAT3 decoy and cisplatin upon in vitro apoptosis were evaluated with a two way factorial design. Additive and synergistic effects of the STAT3 decoy and cisplatin were tested with a permutation test. In vivo tumor xenograft experiments were analyzed with mixed linear models that assumed animals were random effects having an unstructured within-animal covariance matrix. Data were log transformed and examined for the interaction between treatment group and day of observation beginning with day 10 after tumor inoculation, differences between treatment groups were estimated and tested with the pooled estimated standard error. Multiple comparisons were controlled by simulating observations from a multivariate t distribution with the same covariance matrix as the observed data and adjusting p values accordingly.
In vivo tumor xenograft studies. Female athymic nude mice nu/nu (4-6 weeks old; 20±2 g; Harlan-Sprague-Dawley) were implanted with 1×10^6 1483 cells into the right and left flank with a 26-gauge needle/1 ml tuberculin syringe, resulting in two tumors per mouse. […]

[3] = system: Egr-1 transcription recognition sequence; assay: pEgr-1-Luc reporter assay in SCCHN cells; assay type: cell-based; details: SCCHN cells co-transfected with 2 μg pEgr-1-Luc and 2 μg decoy, 24 hrs
Description: STAT3 decoy-specific transcriptional repression of Egr-1(Early Growth Response -1 enhancer, pEGR-1-Luc, Stratagene Cat. No. 240130, containing three repeats of the Egr-1 transcription recognition sequence: 5′-GGGTGGGGN-3′ (SEQ ID NO: 31) was also observed. SCCHN cells were co-transfected with 2 μg pEgr-1-Luc plasmid and 2 μg of the STAT3 decoy or the control mutant decoy. At 24 hrs after transfection, luciferase activity was measured and normalized to the total amount of protein according to standard methods.

GAS-responsive element = assay: pGAS-Luc reporter gene assay in UM-22B SCCHN cells; assay type: cell-based; details: UM-22B pGAS-Luc, 2 μg transfected, 24 hrs, IFN-γ stimulation
Description: FIG. 9 depicts the inhibition of reporter gene expression from GAS-responsive element in SCCHN cells. An SCCHN cell line, UM-22B, was used to generate a stable cell line expressing a pGAS-Luc reporter gene (pGAS-Luc plasmid carrying 4 repeats of GAS sequence: [NT] ID NO: 31), was obtained from Stratagene, Catalog number: 219091-51). The cells were transfected with 2 μg of the STAT3 decoy or the control mutant decoy. At 24 hrs after transfection, luciferase activity was measured and normalized to the total amount of protein.

Bcl-xL = Bcl-xL expression by immunoblotting in SCCHN cells in vitro; assay type: cell-based, human; details: 1483 cells; 25 μM, 6 days; p<0.0001
Description: as §1, §2

For “STAT3 decoy (sense CATTTCCCGTAAATC; antisense GATTTACGGGAAATG; phosphorothioate modified, further chemistry not given here; listed as Homo sapiens)”, the STAT5 activation (STAT5) is given as “no abrogation”, the “head and neck squamous cell carcinoma growth in vitro” value [1] is given as “abrogate” and the “Cyclin D1 expression compared with mutant control decoy” value (Cyclin D1) is given as “decreased”. The “tumor growth (tumor volumes) compared with mutant control decoy” value [2] was “significantly decreased; also recorded: growth inhibited”, the “transcriptional repression of Egr-1 enhancer reporter” value [3] was “observed” and the “reporter gene expression from a GAS-responsive element (STAT1 reporter activity)” value (GAS-responsive element) was “inhibit”. For the same substance, the “Bcl-xL expression compared with mutant control decoy” value (Bcl-xL) was “decreased”.

Reference: patent US20060293264A1, “STAT3 decoy oligonucleotides and uses therefor” (priority 2004, published 2006)
